In patent publication US8158791B2, “Aza-substituted spiro derivatives” (MSD K.K., priority 2005, dated 2012):

Molecular target: T1, human histamine-H3 receptor (Homo sapiens, UniProt Q9Y5N1)
T1 construct: expressed in transfected cells; host or cells: HEK293 and CHO-K1 (membrane preparation)
Assay: Histamine analogue-binding inhibition test
Conditions: 50% inhibitory concentration to specific [3H]N-α-methylhistamine binding; membrane specimen of histamine-H3 receptor expression cells; 25° C., 2 hours, pH 7.4
Text: A cDNA sequence coding for a human histamine-H3 receptor [see WO00/39164) was cloned with expression vectors pCR2.1, pEF1× (by Invitrogen) and pCI-neo (by Promega). The resulting expression vector was transfected into host cells, HEK293 and CHO-K1 (American Type Culture Collection), according to a cationic lipid process [see Proceedings of the National Academy of Sciences of the United States of America, Vol., 84, p. 7413 (1987)] to obtain histamine-H3 receptor expression cells.
A membrane specimen prepared from the cells having expressed a histamine-H3 receptor was incubated in an assay buffer (50 mM Tris buffer, pH 7.4) along with a test compound and 20,000 cpm [3H]N-α-methylhistamine (by NEN) therein, at 25° C. for 2 hours, and then filtered through a glass filter GF/C. After washed with 50 mM Tris buffer (pH 7.4), the radioactivity on the glass filter was determined. The non-specific binding was determined in the presence of 10 μM thioperamide (by SIGAM), and the 50% inhibitory concentration (IC50) of the test compound to the specific N-alpha-methylhistamine binding was calculated [see Molecular Pharmacology, Vol. 55, p. 1101 (1999)].

T1 sequence (Q9Y5N1 whole entry): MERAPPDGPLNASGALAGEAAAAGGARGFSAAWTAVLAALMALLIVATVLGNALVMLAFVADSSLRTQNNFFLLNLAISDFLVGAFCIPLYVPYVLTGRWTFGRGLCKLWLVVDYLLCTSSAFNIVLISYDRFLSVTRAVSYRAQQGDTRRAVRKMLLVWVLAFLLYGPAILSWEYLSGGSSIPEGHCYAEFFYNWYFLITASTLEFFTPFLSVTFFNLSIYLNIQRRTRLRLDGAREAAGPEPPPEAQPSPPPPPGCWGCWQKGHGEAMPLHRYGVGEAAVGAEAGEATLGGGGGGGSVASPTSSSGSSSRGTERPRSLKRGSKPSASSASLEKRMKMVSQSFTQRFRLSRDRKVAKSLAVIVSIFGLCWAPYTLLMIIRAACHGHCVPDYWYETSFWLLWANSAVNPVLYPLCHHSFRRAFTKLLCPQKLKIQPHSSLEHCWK

`COc1nccc2c1C(=O)O[C@]21CC[C@H](C(=O)N(C)CCN2CCCCC2)CC1` [Example 34, Trans-4′-methoxy-3′-oxo-N-methyl-N-(2-piperidin-1-ylethyl)-spiro[cyclohexane-1,1′-(3′H)-5′-azaisobenzofuran]-4-carboxamide] was tested. Which IC50 did it give?
The IC50 was 0.32 nM.

Which IC50 does the source give for `CN(CCN1CCCC1)C(=O)[C@H]1CC[C@@]2(CC1)OC(=O)c1ncccc12` [Example 3, Trans-3′-oxo-N-methyl-N-(2-pyrrolidin-1-ylethyl)-spiro[cyclohexane-1,1′-(3′H)-4′-azaisobenzofuran]-4-carboxamide] here?
The IC50 was 0.72 nM.

`COc1ccc2c(n1)C(=O)O[C@]21CC[C@H](C(=O)N(C)CCN2CCCCC2)CC1` [Example 11, Trans-5′-methoxy-3′-oxo-N-methyl-N-(2-piperidin-1-ylethyl)-spiro[cyclohexane-1,1′-(3′H)-4′-azaisobenzofuran]-4-carboxamide] was tested. Which IC50 did it give?
The IC50 was 0.92 nM.

Which IC50 does the source give for `CN(CCN1CCCC1)C(=O)[C@H]1CC[C@@]2(CC1)OC(=O)c1nc(N3CCCCC3)ccc12` [Example 17, Trans-5′-(piperidin-1-yl)-3′-oxo-N-methyl-N-(2-pyrrolidin-1-ylethyl)-spiro[cyclohexane-1,1′-(3′H)-4′-azaisobenzofuran]-4-carboxamide] here?
The IC50 was 1.9 nM.

For `CN(CCN1CCCCC1)C(=O)[C@H]1CC[C@@]2(CC1)OC(=O)c1nc(-c3cnccn3)ccc12` [Example 54, Trans-5′-pyrazinyl-3′-oxo-N-methyl-N-(2-piperidin-1-ylethyl)-spiro[cyclohexane-1,1′-(3′H)-4′-azisobenzofuran]-4-carboxamide], which IC50 is on record?
Its IC50 is 0.07 nM.

`Cc1nccc2c1C(=O)O[C@]21CC[C@H](C(=O)N(C)CCN2CCCCC2)CC1` [Example 41, Trans-4′-methyl-3′-oxo-N-methyl-N-(2-piperidin-1-ylethyl)-spiro[cyclohexane-1,1′-(3′H)-5′-azaisobenzofuran]-4-carboxamide] was tested. Which IC50 did it give?
The IC50 was 0.51 nM.

`COc1ccc2c(n1)C(=O)O[C@]21CC[C@H](C(=O)N(C)CCN2CCCC2)CC1` [Example 13, Trans-5′-methoxy-3′-oxo-N-methyl-N-(2-pyrrolidin-1-ylethyl)-spiro[cyclohexane-1,1′-(3′H)-4′-azaisobenzofuran]-4-carboxamide] was tested. Which IC50 did it give?
The IC50 was 0.92 nM.

For `CN(CCN1CCCCC1)C(=O)[C@H]1CC[C@@]2(CC1)OC(=O)c1c(-c3cnn(C)c3)nccc12` [Example 45, Trans-4′-(1-methyl-1H-pyrazol-4-yl)-3′-oxo-N-methyl-N-(2-piperidin-1-ylethyl)-spiro[cyclohexane-1,1′-(3′H)-5′-azaisobenzofuran]-4-carboxamide], which IC50 is on record?
Its IC50 is 0.14 nM.

Which IC50 does the source give for `CN(CCN1CCCC1)C(=O)[C@H]1CC[C@@]2(CC1)OC(=O)c1nc(-c3ccccc3)ccc12` [Example 21, Trans-5′-phenyl-3′-oxo-N-methyl-N-(2-pyrrolidin-1-ylethyl)-spiro[cyclohexane-1,1′-(3′H)-4′-azaisobenzofuran]-4-carboxamide] here?
The IC50 was 0.42 nM.
